The subject of assay [1] is RMS cell lines including RD and RH30 cells. More on the design: method as in PMID 10917549, PMID 11742497. Conditions: after 4–5 days of treatment, range of RMS cell lines including RD and RH30; cited from earlier work.
The subject of the next assay is RH30 and RD cells. The experiment in a line: IC50 of doxorubicin established in the cell lines tested. Conditions: Homo sapiens. Type of assay: cell-based.

On to `N.N.[Cl][Pt][Cl]` [Cisplatin, cisplatin], for which the IC50 in assay [1] was greater than 0.5 µM.

Take `COc1cccc2c1C(=O)c1c(O)c3c(c(O)c1C2=O)C[C@@](O)(C(=O)CO)C[C@@H]3O[C@H]1C[C@H](N)[C@H](O)[C@H](C)O1` [Doxorubicin, doxorubicin]: it took 0.5 µM to reach half-maximal inhibition in the assay with RH30 and RD cells (IC50).

Source of the values: publication PMC6349869, “The palladacycle complex AJ-5 induces apoptotic cell death while reducing autophagic flux in rhabdomyosarcoma cells” (Cell Death Discovery, 2019).
